The record followed here is patent US10137116B2, “Benzimidazole sulfide derivatives for the treatment or prevention of tuberculosis” (priority 2015, dated 2018).

Molecules are shown by their SMILES. In brackets after ≈: the same amount, converted by molar mass. Entries after “also recorded” stand apart in the source; their conditions may differ. Some results are limits rather than exact numbers.

In one experiment the test system is M. tuberculosis 59744. The experiment is described as follows: microbe, parasite or virus in culture. The experiment is classed as cell-based. The following applies: Mycobacterium tuberculosis.
Another experiment deals with M. tuberculosis MB3649. The experiment is described as follows: microbe, parasite or virus in culture. It is filed as cell-based. The following applies: Mycobacterium tuberculosis.
The next experiment concerns M. tuberculosis MI1020. Put plainly: microbe, parasite or virus in culture. It is filed as cell-based. The note with it: Mycobacterium tuberculosis.
The next experiment has as its system M. tuberculosis 43061. Put plainly: microbe, parasite or virus in culture. The experiment is classed as cell-based. The following applies: Mycobacterium tuberculosis.
A further experiment has as its system M. tuberculosis 45776. The experiment is described as follows: microbe, parasite or virus in culture. The experiment is classed as cell-based. The following applies: Mycobacterium tuberculosis.
For another experiment, the system named is M. tuberculosis 49975. The experiment is described as follows: microbe, parasite or virus in culture. The experiment is classed as cell-based. The following applies: Mycobacterium tuberculosis.
For another experiment, the system named is Mtb strains. The experiment is described as follows: MIC, summary statement for Mtb strains. The experiment is classed as cell-based. The note with it: Mycobacterium tuberculosis.
The next experiment concerns drug resistant isolates. Put plainly: microbe, parasite or virus in culture. It is filed as cell-based, M. tuberculosis. The following applies: Mycobacterium tuberculosis.
For experiment [1], the system named is Mtb spontaneous-resistant mutants 1 to 3 / rMtb-L176P. The experiment is classed as cell-based, Mycobacterium tuberculosis.
Another experiment concerns Mtb-T313A. It is filed as cell-based, Mycobacterium tuberculosis.

With `Cc1c(OCC(F)(F)F)ccnc1CSc1nc2ccccc2[nH]1` [LPZS, Lanzoprazole sulfide], the MIC is 0.78 µM (≈ 0.276 µg/mL) in the experiment with M. tuberculosis 59744; 1.37 µM (≈ 0.484 µg/mL) in the experiment with M. tuberculosis MB3649; 0.94 µM (≈ 0.332 µg/mL) with M. tuberculosis MI1020; 0.49 µM (≈ 0.173 µg/mL) in the experiment on M. tuberculosis 43061; 0.52 µM (≈ 0.184 µg/mL) in the experiment with M. tuberculosis 45776; 1.06 µM (≈ 0.375 µg/mL) in the experiment on M. tuberculosis 49975. In addition, the MIC in the experiment with Mtb strains and in the experiment with drug resistant isolates was < 2 µM throughout. The “resistance of mutants against compound” value in experiment [1] is “stable phenotypic resistance”. Moreover, the “activity against T313A mutant” value in the experiment on Mtb-T313A is listed as “active; also recorded: does not confer high level resistance”.
On to `CCc1nc2ccc(Cl)cn2c1C(=O)NCc1ccc(N2CCC(c3ccc(OC(F)(F)F)cc3)CC2)cc1` [Q203, reference compound], for which, in the experiment on Mtb-T313A, the “activity against T313A mutant” value is “resistant; also recorded: high level resistance”.
